Assay results published in ChEMBL document CHEMBL1146512, “Ketene acetal and spiroacetal constituents of the marine fungus Aigialus parvus BCC 5311” (J Nat Prod, 2004).
The source made the active and inactive calls.

Legend:
Plasmodium falciparum = assay: Antimalarial activity against Plasmodium falciparum K1; assay type: functional, organism-based
[1] = system: Mycobacterium tuberculosis; assay: Antitubercular activity against Mycobacterium tuberculosis H37Ra; assay type: functional, organism-based
Human alphaherpesvirus 1 = assay: Antiviral activity against HSV1; assay type: functional, organism-based
Candida albicans = assay: Antifungal activity against Candida albicans; assay type: functional, organism-based
KB = assay: Cytotoxicity against human KB cells; assay type: functional, cell-based
BC1 = assay: Cytotoxicity against human BC1 cells; assay type: functional, cell-based

Measured: Activity

COc1cc(O)c2c(c1)[C@@H]([C@H]1C[C@H](O)[C@H](O)[C@@]3(C=CC[C@H](C)O3)O1)OC2=O
inactive: all assays above

CCCCCCC[C@@H]1OC2=C(C(=O)[C@H](C)O2)[C@H](O)[C@@]1(C)O
inactive: all assays above
